Reference: patent US11655258B2, “Heterocycle derivatives as pesticides” (BAYER AKTIENGESELLSCHAFT, priority 2017, dated 2023)
Each block holds one compound with its values, some of them ahead of it.

Columns and labels:
Phaedon cochleariae = Phaedon cochleariae spray test; format: in vivo; conditions: 168 h, after 7 days, read-out: efficacy; for pest or weed control at 20 g/ha: application rate 20 g/ha; for pest or weed control at 100 g/ha: application rate 100 g/ha
Experimental: Phaedon cochleariae—Spray Test • Solvent: 78.0 parts by weight of acetone • 1.5 parts by weight of dimethylformamide • Emulsifier: alkylaryl polyglycol ether
(§1) To produce a suitable active compound preparation, 1 part by weight of active compound is dissolved using the stated parts by weight of solvent and made up with water containing an emulsifier concentration of 1000 ppm until the desired concentration is attained. To produce further test concentrations, the formulation is diluted with emulsifier-containing water.
Discs of Chinese cabbage leaves (Brassica pekinensis) are sprayed with an active compound formulation of the desired concentration and, after drying, populated with larvae of the mustard beetle (Phaedon cochleariae).
After 7 days, the efficacy in % is determined. 100% means that all the beetle larvae have been killed; 0% means that no beetle larvae have been killed.

Rhipicephalus sanguineus = Rhipicephalus sanguineus in vitro contact test with adult brown dog ticks; format: in vivo; conditions: application rate 1 μg/cm^2 (=100 g of ai/ha), after 48 h
Experimental: Rhipicephalus sanguineus—In Vitro Contact Tests with Adult Brown Doe Ticks
(§2) For the coating of the test tubes, 9 mg of active compound are first dissolved in 1 ml of acetone p.a. and then diluted to the desired concentration with acetone p.a. 250 μl of the solution are distributed homogeneously on the inner walls and the base of a 25 ml glass tube by turning and rocking on an orbital shaker (rocking rotation at 30 rpm for 2 h). With 900 ppm of active compound solution and internal surface area 44.7 cm^2, given homogeneous distribution, an area-based dose of 5 μg/cm^2 is achieved.
After the solvent has evaporated off, the tubes are populated with 5-10 adult dog ticks (Rhipicephalus sanguineus), sealed with a perforated plastic lid and incubated in a horizontal position in the dark at room temperature and ambient humidity. After 48 h, efficacy is determined. To this end, the ticks are knocked to the base of the tube and incubated on a hotplate at 45-50° C. for not more than 5 min. Ticks which remain motionless on the base or move in such an uncoordinated manner that they are unable to deliberately avoid the heat by climbing upwards are considered to be dead or moribund.
An efficacy of 100% means that all the ticks were dead or moribund. 0% efficacy means that none of the ticks were harmed.

Ctenocephalides felis [1] = test: Ctenocephalides felis oral test; format: in vivo; conditions: application rate 100 ppm in citrated cattle blood, after 2 days
Experimental: Ctenocephalides felis—Oral Test • Solvent: dimethyl sulfoxide
To produce a suitable active compound formulation, 10 mg of active compound are mixed with 0.5 ml of dimethyl sulfoxide. Dilution with citrated cattle blood gives the desired concentration.
About 20 unfed adult cat fleas (Ctenocephalides felis) are placed into a chamber which is closed at the top and bottom with gauze. A metal cylinder whose bottom end is closed with parafilm is placed onto the chamber. The cylinder contains the blood/active compound formulation, which can be imbibed by the fleas through the parafilm membrane.
After 2 days, the kill in % is determined. 100% means that all of the fleas have been killed; 0% means that none of the fleas have been killed.

Myzus persicae [2] = test: Myzus persicae spray test (Chinese cabbage leaf discs); format: in vivo; conditions: foliar, 120 h, application rate 100 g/ha, after 5 days, read-out: efficacy
Experimental: Myzus persicae Spray Test • Solvent: 78 parts by weight of acetone • 1.5 parts by weight of dimethylformamide • Emulsifier: alkylaryl polyglycol ether
as §1
Discs of Chinese cabbage leaves (Brassica pekinensis) infested by all stages of the green peach aphid (Myzus persicae) are sprayed with an active compound formulation of the desired concentration.
(§3) After 5 days, the efficacy in % is determined. 100% means that all the aphids have been killed; 0% means that no aphids have been killed.

Spodoptera frugiperda = Spodoptera frugiperda spray test; format: in vivo; conditions: application rate 100 g/ha, after 7 days
Experimental: Spodoptera frugiperda—Spray Test • Solvent: 78.0 parts by weight of acetone • 1.5 parts by weight of dimethylformamide • Emulsifier: alkylaryl polyglycol ether
as §1
Leaf discs of maize (Zea mays) are sprayed with an active compound formulation of the desired concentration and, after drying, populated with caterpillars of the fall armyworm (Spodoptera frugiperda).
After 7 days, the efficacy in % is determined. 100% means that all the caterpillars have been killed; 0% means that no caterpillar has been killed.

Myzus persicae [3] = test: Myzus persicae oral test; format: in vivo; conditions: 120 h, application rate 4 ppm, after 5 days, read-out: efficacy
Experimental: Myzus persicae Oral Test • Solvent: 100 parts by weight of acetone
To produce a suitable preparation of active compound, 1 part by weight of active compound is dissolved using the specified parts by weight of solvent and made up with water until the desired concentration is attained.
50 μl of the active compound preparation are transferred into microtitre plates and made up to a final volume of 200 μl with 150 μl of IPL41 insect medium (33%+15% sugar). Subsequently, the plates are sealed with parafilm, which a mixed population of green peach aphids (Myzus persicae) within a second microtitre plate is able to puncture and imbibe the solution through.
as §3

Lucilia cuprina = Lucilia cuprina test; format: in vivo; conditions: application rate 100 ppm, L1 larvae, after 2 days
Experimental: Lucilia cuprina Test • Solvent: dimethyl sulfoxide
(§4) To produce a suitable active compound formulation, 10 mg of active compound are mixed with 0.5 ml of dimethyl sulfoxide, and the concentrate is diluted with water to the desired concentration.
About 20 L1 larvae of the Australian sheep blowfly (Lucilia cuprina) are transferred into a test vessel containing minced horsemeat and the active compound formulation of the desired concentration.
After 2 days, the kill in % is determined. 100% means that all the larvae have been killed; 0% means that no larvae have been killed.

Ctenocephalides felis [4] = test: Ctenocephalides felis in vitro contact test with adult cat fleas; format: in vivo; conditions: application rate 5 μg/cm^2 (=500 g of ai/ha), after 48 h
Experimental: Ctenocephalides felis—In Vitro Contact Tests with Adult Cat Fleas
as §2
After the solvent has evaporated off, the tubes are populated with 5-10 adult cat fleas (Ctenocephalides felis), sealed with a perforated plastic lid and incubated in a horizontal position at room temperature and ambient humidity. After 48 h, efficacy is determined. To this end, the tubes are stood upright and the fleas are knocked to the base of the tube. Fleas which remain motionless at the base or move in an uncoordinated manner are considered to be dead or moribund.
100% efficacy means that all the fleas were dead or moribund. 0% efficacy means that no fleas were harmed.

Boophilus microplus = Boophilus microplus injection test; format: in vivo; conditions: application rate 20 μg/animal, laying of fertile eggs after 7 days
Experimental: Boophilus microplus Injection Test • Solvent: dimethyl sulfoxide
To produce a suitable active compound formulation, 10 mg of active compound are mixed with 0.5 ml of solvent and the concentrate is diluted to the desired concentration with solvent.
1 μl of the active compound solution is injected into the abdomen of 5 engorged adult female cattle ticks (Boophilus microplus). The animals are transferred into dishes and kept in a climate-controlled room.
Efficacy is assessed after 7 days by laying of fertile eggs. Eggs which are not visibly fertile are stored in a climate-controlled cabinet until the larvae hatch after about 42 days. An efficacy of 100% means that none of the ticks has laid any fertile eggs; 0% means that all the eggs are fertile.

[5] = log P by HPLC on reversed-phase column (EEC Directive 79/831 Annex V.A8); format: physicochemical; conditions: reversed-phase HPLC column (C18); pH 7.8, 0.001 molar aqueous ammonium bicarbonate/acetonitrile, 55° C.; read-out: log P (neutral)
Experimental: The log P values are measured according to EEC Directive 79/831 Annex V.A8 by HPLC (high-performance liquid chromatography) on a reversed-phase column (C 18). Temperature: 55° C.
The LC-MS determination in the neutral range is effected at pH 7.8 with 0.001 molar aqueous ammonium bicarbonate solution and acetonitrile as mobile phases; linear gradient from 10% acetonitrile to 95% acetonitrile. Called log P (neutral) in the table.
Calibration is carried out using unbranched alkan-2-ones (having 3 to 16 carbon atoms) with known Log P values (Log P values determined on the basis of the retention times by linear interpolation between two successive alkanones).

Aphis gossypii = Aphis gossypii spray test (APHIGO); format: in vivo; conditions: 144 h, 6 dat, read-out: % efficacy
Experimental: Aphis gossypii Spray Test (APHIGO) • Solvent: 14 parts by weight of dimethylformamide • Emulsifier: alkylaryl polyglycol ether
as §1, with “water. If the addition of ammonium salts or/and penetrants is required, these are each added in a concentration of 1000 ppm to the formulation solution.” for “water.”
Cotton plants (Gossypium hirsutum) heavily infested by the cotton aphid (Aphis gossypii) are sprayed with an active compound formulation of the desired concentration.
After the desired time, the kill in % is determined. 100% means that all the aphids have been killed; 0% means that no aphids have been killed.

Myzus persicae [6] = test: Myzus persicae drench test (MYZUPE D), savoy cabbage; format: in vivo; conditions: soil, 240 h, 10 dat, read-out: % efficacy
Experimental: Myzus persicae—Drench Test (MYZUPE D) • Solvent: 7 parts by weight of dimethylformamide • Emulsifier: 2 parts by weight of alkylaryl polyglycol ether
To produce a suitable active compound preparation, 1 part by weight of active compound is mixed with the specified amounts of solvent and emulsifier, and the concentrate is diluted with water to the desired concentration, it being necessary to include the volume of soil which is drenched in the calculation. It should be ensured that a concentration of 40 ppm of emulsifier in the soil is not exceeded. To produce further test concentrations, water is used for dilution.
Savoy cabbage (Brassica oleracea) in pots with soil and infested by all stages of the green peach aphid (Myzus persicae) is watered with an active compound preparation of the desired concentration.
After the desired period of time, the efficacy in % is determined. 100% means that all the aphids have been killed; 0% means that no aphids have been killed.

Nilaparvata lugens = Nilaparvata lugens spray test (NILALU); format: in vivo; conditions: 96 h, 500 g/ha, 4 dat, read-out: % efficacy
Experimental: Nilaparvata lugens—Spray Test (NILALU) • Solvent: 52.5 parts by weight of acetone • 7 parts by weight of dimethylformamide • Emulsifier: alkylaryl polyglycol ether
as §1, with “water. If the addition of ammonium salts or/and penetrants is required, these are each added in a concentration of 1000 ppm to the formulation solution.” for “water.”
Rice plants (Oryza sativa) are sprayed with an active ingredient formulation of the desired concentration and then populated with larvae of the brown planthopper (Nilaparvata lugens).
After the desired period of time, the efficacy in % is determined. 100% means that all of the planthoppers have been killed; 0% means that none of the planthoppers have been killed.

Myzus persicae [7] = test: Myzus persicae spray test (MYZUPE S), bell pepper plants; format: in vivo; conditions: 144 h, 6 dat, read-out: % efficacy
Experimental: Myzus persicae—Spray Test (MYZUPE S) • Solvent: 14 parts by weight of dimethylformamide • Emulsifier: alkylaryl polyglycol ether
as §1, with “water. If the addition of ammonium salts or/and penetrants is required, these are each added in a concentration of 1000 ppm to the formulation solution.” for “water.”
Bell pepper plants (Capsicum annuum) severely infested with the green peach aphid (Myzus persicae) are treated by spraying with the active compound formulation in the desired concentration.
After the desired time, the kill in % is determined. 100% means that all the animals have been killed; 0% means that no animals have been killed.

Musca domestica = Musca domestica test; format: in vivo; conditions: application rate 100 ppm, adult houseflies, after 2 days
Experimental: Musca domestica Test • Solvent: dimethyl sulfoxide
as §4
Vessels containing a sponge treated with sugar solution and the desired concentration of active compound formulation are populated with 10 adult houseflies (Musca domestica).
After 2 days, the kill in % is determined. 100% means that all of the flies have been killed; 0% means that none of the flies have been killed.

SMILES: CCS(=O)(=O)c1cc2ccccc2nc1-c1nc2cc(C(F)(F)F)ncn2n1 [Example I-05]
pest or weed control at 20 g/ha (Phaedon cochleariae): 100%
pest or weed control at 100 g/ha (Phaedon cochleariae): 100%
efficacy (Rhipicephalus sanguineus): 80%
efficacy (kill) (Ctenocephalides felis [1]): 95%
pest or weed control at 100 g/ha (Myzus persicae [2]): 90%
efficacy (Spodoptera frugiperda): 100%
pest or weed control at 4 ppm (Myzus persicae [3]): 100%
efficacy (kill) (Lucilia cuprina): 100%
efficacy (Ctenocephalides felis [4]): 100%

SMILES: CCS(=O)(=O)c1c(-c2nc3ccc(C(F)(F)F)cn3n2)nc2cc(NC(=O)C3CC3)ccn12 [Example I-09]
efficacy (Boophilus microplus): 100%
efficacy (kill) (Ctenocephalides felis [1]): 95%
pest or weed control at 4 ppm (Myzus persicae [3]): 100%

chromatographic logP [5]: 2.41
SMILES: CCS(=O)(=O)c1c(-c2nc3ccc(C(F)(F)F)cn3n2)nc2cc(C(F)(F)F)ccn12 [Example I-01]
pest or weed control at 20 g/ha (Phaedon cochleariae): 100%
pest or weed control at 100 g/ha (Phaedon cochleariae): 100%
Emax at 20 ppm (Aphis gossypii): 99%
Emax at 20 ppm (Myzus persicae [6]): 90%
efficacy (kill) (Ctenocephalides felis [1]): 100%
efficacy (Spodoptera frugiperda): 100%
pest or weed control at 4 ppm (Myzus persicae [3]): 100%
Emax at 500 g/ha (Nilaparvata lugens): 80%
Emax at 20 ppm (Myzus persicae [7]): 95%
efficacy (kill) (Lucilia cuprina): 100%
efficacy (Ctenocephalides felis [4]): 100%

SMILES: CCS(=O)(=O)c1c(-c2nc3ccc(C(F)(F)F)cn3n2)nc2cc(I)ccn12 [Example I-12]
pest or weed control at 20 g/ha (Phaedon cochleariae): 100%
pest or weed control at 100 g/ha (Phaedon cochleariae): 100%
efficacy (Spodoptera frugiperda): 100%
pest or weed control at 4 ppm (Myzus persicae [3]): 90%
efficacy (kill) (Musca domestica): 90%
efficacy (kill) (Lucilia cuprina): 100%
efficacy (Ctenocephalides felis [4]): 100%
